The values below come from patent publication US20240383906A1, “5-SUBSTITUTED PYRIDINE-2(1H)-KETONE COMPOUND AND USE THEREOF” (JIANGSU KANION PHARMACEUTICAL CO., LTD., priority 2021, published 2024).

What is called IC50 is the concentration that gives 50% inhibition. Low readings indicate higher potency, high ones lower potency. As a reminder, the clearance is the rate of elimination divided by the concentration. A low value points to a low capacity for elimination. In general, Cmax refers to the highest concentration seen after dosing.

Data set [1] relates to Capan-2 cells. The data set is described as follows: Capan-2 cell anti-proliferative activity test. The data set is classed as cell-based. The note with it: Homo sapiens, Capan-2, 120 h; 5 days, CellTiter-Glo. As for the experimental part: Capan-2 cells were provided by Wuhan Heyan Biomedical Technology Co., Ltd., and CellTiter-Glo was purchased from Promega.
Capan-2 cells were seeded in a white 96-well plate, with 80 μL of cell suspension per well, each containing 5,000 Capan-2 cells. The cell plate was placed in a carbon dioxide incubator for overnight culture.
The test compounds were 3-fold diluted with a multi-channel pipette to the 9th concentration, i.e., diluted from 200 μM to 30 nM, and duplicate experiment was set. 78 μL of culture medium was added to an intermediate plate, and then 2 μL of gradient diluted compound per well was transferred to the intermediate plate according to the corresponding position. After mixing well, the compound was transferred to the cell plate at 20 μL per well. The cell plate was placed in a carbon dioxide incubator and cultured for 5 days. Another cell plate was prepared, and the signal value was read on the day of drug administration to serve as the maximum value (Max value in the equation below) for data analysis. 25 μL of cell viability chemiluminescence detection reagent was added to each well of this cell plate, and it was incubated at room temperature for 10 minutes to stabilize the luminescent signal. A multimode microplate reader was used for reading.
After the cell plate was cultured for 5 days, 25 μL of Promega CellTiter-Glo reagent was added to each well of the cell plate, and it was incubated at room temperature for 10 minutes to stabilize the luminescent signal. A multimode microplate reader was used for reading.
The IC50 value could be obtained through curve fitting, and the results of the inhibitory activity of the compounds of the present disclosure on the proliferation of Capan-2 cells are shown in Table 11.

Data set [2] has as its system WNT pathway STF reporter gene. The data set is described as follows: Super-Top-Flash (STF) reporter gene inhibitory activity test. The data set is classed as cell-based. The note with it: HEK293 STF and L wnt3A cells 1:1, 24 hours, Bright-Glo. As for the experimental part:
HEK293 STF and L wnt3A cells were provided by Wuhan Heyan Biomedical Technology Co., Ltd., and Bright Glo was purchased from Promega.
• HEK293 STF and L wnt3A cells were seeded in a white 96-well plate at a ratio of 1:1, with 80 μL of cell suspension per well, each containing 20,000 HEK293 STF cells and 20,000 L wnt3A cells. The cell plate was placed in a carbon dioxide incubator for overnight culture.
The test compounds were 5-fold diluted with a multi-channel pipette to the 8th concentration, i.e., diluted from 400 μM to 5.12 nM, and duplicate experiment was set. 78 μL of culture medium was added to an intermediate plate, and then 2 μL of gradient diluted compound per well was transferred to the intermediate plate according to the corresponding position. After mixing well, the compound was transferred to the cell plate at 20 μL per well. The cell plate was placed in a carbon dioxide incubator and cultured for 24 hours.
100 μL of Promega Bright-Glo reagent was added to each well of the cell plate, and it was incubated at room temperature for 10 minutes to stabilize the luminescent signal. A multimode microplate reader was used for reading.
Using the raw data from the multimode microplate reader, the IC50 value could be obtained through curve fitting. Table 10 provides the data on the inhibitory activity of the compounds of the present disclosure on the Wnt signaling pathway.
A general note: A reporter such as luciferase makes a cellular process visible.

The nature of data set [3]: Pharmacokinetic evaluation in mice. The data set is classed as in vivo. To be noted: male CD-1 mice. As for the experimental part: • CD-1 mice (male, 7 to 9 weeks old, Shanghai SLAC)
The pharmacokinetic characteristics of the compound in rodents were tested using a standard protocol after intravenous injection (IV) and oral (PO) administration. In the experiment, mice were given a single intravenous injection and oral administration. The solvent for the intravenous injection was water. The solvent for oral administration was 0.5% hydroxypropyl methylcellulose. This project involved four male CD-1 mice. Two of the mice were administered a dose of 0.5 mg/kg via intravenous injection. Plasma samples were collected at 0 hours (before administration) and at 0.083, 0.25, 0.5, 1, 2, 4, 8, and 24 hours after administration. The other two mice were administered a dose of 2.5 mg/kg via oral gavage. Plasma samples were collected at 0 h (before administration) and at 0.25, 0.5, 1, 2, 4, 8, and 24 hours after administration. Whole blood samples were collected within 24 hours, centrifuged at 3000 g for 15 minutes, and the supernatant was separated to obtain plasma samples. Four times the volume of acetonitrile solution containing an internal standard was added to precipitate the protein. After centrifugation, the supernatant was collected, an equal volume of water was added, and it was centrifuged again to collect the supernatant for sampling. The plasma concentration was quantitatively analyzed by LC-MS/MS analysis method, and the pharmacokinetic parameters were calculated, such as peak concentration (Cmax), clearance rate (CL), half-life (T1/2), volume of distribution at steady state (Vdss), area under drug-time curve (AUC0-last), bioavailability (F).

Consider `Cn1cc(-c2cnc(CNc3nccn4c(-c5cc(F)cc(F)c5)cnc34)cn2)ccc1=O` [Compound 2], for which the values for the IC50 in data set [1] and in data set [2] were 6.07 nM and 0.23 nM, respectively. Further, in data set [3] (IV 0.5 mg/kg, PO 2.5 mg/kg), the F is on record as 29.4%. In data set [3] (mouse, plasma, IV 0.5 mg/kg), this compound registered a clearance of 5.37 mL/min/kg. Besides, the half-life in data set [3] (mouse, plasma, IV 0.5 mg/kg, read-out: T1/2 (IV) (converted)) is 5.99 h. Also, in data set [3] (mouse, plasma, IV 0.5 mg/kg, read-out: Vdss), the Vd was determined as 0.568 L/kg. In data set [3] (mouse, plasma, PO 2.5 mg/kg, read-out: AUC0-last (PO)), the AUC(0-t) was determined as 20.5 µM·h. In data set [3] (mouse, plasma), the Cmax was determined as 1760 nM.
